Measured values taken from US9616063B2, “1-[2-(aminomethyl)benzyl]-2-thioxo-1,2,3,5-tetrahydro-4H-pyrrolo[3,2-d]pyrimidin-4-ones as inhibitors of myeloperoxidase” (AstraZeneca AB, priority 2014, dated 2017).

What was measured:
[1] = target: baculovirus-expressed recombinant human TPO (Homo sapiens (Human), UniProt P07202); assay: TPO inhibition (hypoiodous acid production, absorbance at 353 nm); type: biochemical
Experimental: To detect thyroid peroxidase (TPO) inhibitory activity, the production of hypoiodous acid (HOI) was quantified. HOI was detected by reacting it with methionine, which is converted to dehydro-methionine, which in turn is detected by reacting it with excess iodide at acidic pH. The reaction converts I^− to I3^− that has absorbance at 353 nm. In brief, 0.6 μL compound serially diluted in DMSO was added to 25 μL 50 nM baculovirus-expressed recombinant human TPO (obtained from RSR Ltd, Cardiff, UK) in assay buffer (100 mM Na2HPO4/NaH2PO4, pH 7.4), after which absorbance at 353 nm was read to obtain a blank value. The enzyme reaction was initiated by the addition of 25 μL of a mix consisting of 2 mM methionine, 20 μM NaI and 100 μM H2O2 in assay buffer, and stopped by the addition of 10 μL catalase, 0.25 mg/mL. […] IC50 values of the compounds tested were obtained using standard procedures.

[2] = tested on: MPO purified from the human cell line HL60; assay: MPO inhibition, Test A (loss of ascorbate, absorbance at 260 nm); type: biochemical; settings: ratio TPO to MPO, selectivity for MPO over TPO
Experimental: (§1) Methods for the determination of MPO inhibitory activity are disclosed in WO 02/090575. The pharmacological activity of compounds disclosed herein was tested in the following screen (Test A) in which the compounds were tested in the presence of ascorbate, which reacts with MPO-derived hypochlorous acid (HOCl) to form dehydro-ascorbate. The loss of ascorbate is followed by measuring absorbance at 260 nm.
(§2) Assay buffer: 100 μM diethyl triamine pentaacetic acid (DTPA) in buffer consisting of 10 mM Na2HPO4/NaH2PO4, 3 mM KCl in 140 mM NaCl, pH 7.4.
(§3) Enzyme solution: MPO purified from the human cell line HL60, 1.38 nM (final concentration 0.7 nM) and L-ascorbate, 100 μM (final concentration 50 μM) in Assay buffer
(§4) Substrate solution: H2O2, 98 μM (final concentration 49 μM) Forty μL of the enzyme solution was added to 0.6 μL compound serially diluted in DMSO. Absorbance was measured at 260 nm to obtain a compound blank value. After an additional 10 min, 40 μL of the substrate solution was added and the absorbance at 260 nm was recorded between 4 and 40 min to obtain kinetic readings of enzyme activity.

[3] = target: MPO purified from the human cell line HL60 (Homo sapiens (Human), UniProt P05164); assay: as above; type: biochemical; settings: absorbance at 260 nm 20 minutes after substrate addition
Experimental: as §1, §2, §3, §4

activated MPO = activated MPO (Homo sapiens (Human), UniProt P05164); assay: Urate production from xanthine by activated MPO in vitro (LC-MS); type: biochemical; settings: activated MPO incubated with xanthine and titrated compound for 80 min
Text: The dotted line represents the urate formed in the presence of unactivated MPO.
In addition to MPOs role in maintaining elevated urate levels due to poor perfusion as discussed above, we also propose that MPO per se may generate urate by oxidizing xanthine in concert with xanthine oxidase.

[4] = healthy subjects, clinical trial, data not shown; cited from earlier work
[5] = Plasma urate levels in Healthy Volunteers after MPO inhibitor treatment (clinical trial); type: in vivo, human; settings: daily dose for 10 days, FIG. 2, NCT00914303
Experimental: Subjects received placebo or the indicated daily dose for 10 days, and the difference in plasma urate levels versus baseline was calculated. Each symbol represents one subject.

baculovirus-expressed recombinant human TPO, sequence (P07202 19-933): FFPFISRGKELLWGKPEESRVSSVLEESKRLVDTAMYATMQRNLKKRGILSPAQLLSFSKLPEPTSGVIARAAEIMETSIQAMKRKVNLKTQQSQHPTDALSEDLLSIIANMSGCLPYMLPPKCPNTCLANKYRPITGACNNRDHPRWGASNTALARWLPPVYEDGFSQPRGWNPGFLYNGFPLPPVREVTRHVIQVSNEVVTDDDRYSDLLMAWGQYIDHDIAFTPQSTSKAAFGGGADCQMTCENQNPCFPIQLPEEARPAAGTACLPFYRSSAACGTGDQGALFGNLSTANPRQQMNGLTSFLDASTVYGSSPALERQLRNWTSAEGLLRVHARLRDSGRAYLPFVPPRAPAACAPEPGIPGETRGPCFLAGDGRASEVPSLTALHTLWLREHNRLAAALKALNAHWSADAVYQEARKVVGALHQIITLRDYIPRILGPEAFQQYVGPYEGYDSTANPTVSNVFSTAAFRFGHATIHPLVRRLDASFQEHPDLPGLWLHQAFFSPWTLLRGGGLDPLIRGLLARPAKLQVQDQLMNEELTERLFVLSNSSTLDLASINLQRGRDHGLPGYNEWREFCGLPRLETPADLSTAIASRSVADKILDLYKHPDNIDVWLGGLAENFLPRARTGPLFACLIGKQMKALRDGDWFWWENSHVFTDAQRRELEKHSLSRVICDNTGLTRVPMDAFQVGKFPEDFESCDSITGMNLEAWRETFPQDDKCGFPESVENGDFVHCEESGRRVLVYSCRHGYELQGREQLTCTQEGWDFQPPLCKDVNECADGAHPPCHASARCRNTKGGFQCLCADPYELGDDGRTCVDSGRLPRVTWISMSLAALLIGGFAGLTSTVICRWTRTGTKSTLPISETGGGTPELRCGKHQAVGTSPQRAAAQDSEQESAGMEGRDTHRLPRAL
MPO purified from the human cell line HL60 (Homo sapiens (Human), UniProt P05164), sequence (P05164 whole entry, looked up, change not shown): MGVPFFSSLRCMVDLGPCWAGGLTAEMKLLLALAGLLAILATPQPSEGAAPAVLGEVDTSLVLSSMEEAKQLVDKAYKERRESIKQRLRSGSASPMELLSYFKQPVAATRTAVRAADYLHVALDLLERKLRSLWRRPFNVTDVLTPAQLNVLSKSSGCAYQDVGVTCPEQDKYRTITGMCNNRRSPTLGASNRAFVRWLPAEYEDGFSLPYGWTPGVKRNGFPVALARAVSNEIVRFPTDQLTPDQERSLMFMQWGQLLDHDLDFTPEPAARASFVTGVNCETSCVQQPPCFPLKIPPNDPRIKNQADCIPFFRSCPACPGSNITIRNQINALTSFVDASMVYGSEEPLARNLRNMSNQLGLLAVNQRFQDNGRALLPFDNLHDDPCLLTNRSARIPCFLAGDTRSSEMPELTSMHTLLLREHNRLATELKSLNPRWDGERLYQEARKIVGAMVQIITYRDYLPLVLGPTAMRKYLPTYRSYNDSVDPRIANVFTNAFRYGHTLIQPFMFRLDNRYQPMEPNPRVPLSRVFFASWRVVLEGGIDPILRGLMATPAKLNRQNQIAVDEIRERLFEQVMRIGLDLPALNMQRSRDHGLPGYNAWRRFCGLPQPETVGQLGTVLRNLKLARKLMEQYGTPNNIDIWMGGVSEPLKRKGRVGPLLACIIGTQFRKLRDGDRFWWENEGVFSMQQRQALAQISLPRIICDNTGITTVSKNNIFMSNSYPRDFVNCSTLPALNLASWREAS
MPO purified from the human cell line HL60 (Homo sapiens (Human), UniProt P05164), sequence (P05164 whole entry, looked up, change not shown): as above
activated MPO, sequence (P05164 49-745): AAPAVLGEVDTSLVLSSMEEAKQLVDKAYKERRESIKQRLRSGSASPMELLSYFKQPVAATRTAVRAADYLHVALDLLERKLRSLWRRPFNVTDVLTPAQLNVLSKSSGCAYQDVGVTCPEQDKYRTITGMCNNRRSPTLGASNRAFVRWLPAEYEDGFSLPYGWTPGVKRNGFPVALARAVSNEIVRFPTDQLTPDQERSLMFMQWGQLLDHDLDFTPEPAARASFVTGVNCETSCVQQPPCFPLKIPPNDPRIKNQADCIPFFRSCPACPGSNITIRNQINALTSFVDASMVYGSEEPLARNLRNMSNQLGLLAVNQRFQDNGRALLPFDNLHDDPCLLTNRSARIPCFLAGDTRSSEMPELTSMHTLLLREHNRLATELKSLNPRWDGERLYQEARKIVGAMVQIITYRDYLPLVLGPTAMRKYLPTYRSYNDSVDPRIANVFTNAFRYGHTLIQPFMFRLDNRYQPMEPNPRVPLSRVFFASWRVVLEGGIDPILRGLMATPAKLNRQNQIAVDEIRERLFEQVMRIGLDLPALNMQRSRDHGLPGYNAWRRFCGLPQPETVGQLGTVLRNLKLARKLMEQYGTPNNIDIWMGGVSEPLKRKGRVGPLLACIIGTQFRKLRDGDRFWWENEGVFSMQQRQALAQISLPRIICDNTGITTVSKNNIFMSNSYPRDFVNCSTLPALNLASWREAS

| SMILES | IC50 [1] [µM] | IC50 (TPO)/IC50 (MPO) [2] | IC50 [3] [µM] | inhibition of urate production by activated MPO (activated MPO) | reduction of urate levels [4] | reduction of plasma urate levels versus baseline [5] |
| --- | --- | --- | --- | --- | --- | --- |
| CCNCc1cc(Cl)ccc1Cn1c(=S)[nH]c(=O)c2[nH]ccc21 [Example 6, 1-{4-Chloro-2-[(ethylamino)methyl]benzyl}-2-thioxo-1,2,3,5-tetrahydro-4H-pyrrolo[3,2-d]pyrimidin-4-one] | 10 | 455 | 0.022 |  |  |  |
| CNCc1cc(C(F)(F)F)ccc1Cn1c(=S)[nH]c(=O)c2[nH]ccc21 [Example 15, 1-{2-[(Methylamino)methyl]-4-(trifluoromethyl)benzyl}-2-thioxo-1,2,3,5-tetrahydro-4H-pyrrolo[3,2-d]pyrimidin-4-one] | 11 | 224 | 0.049 |  |  |  |
| C[C@@H](N)c1cc(Cl)ccc1Cn1c(=S)[nH]c(=O)c2[nH]ccc21 [Example 3, 1-{2-[(1R)-1-Aminoethyl]-4-chlorobenzyl}-2-thioxo-1,2,3,5-tetrahydro-4H-pyrrolo[3,2-d]pyrimidin-4-one] | 4.3 |  |  | concentration-dependently inhibited |  |  |
| CC[C@@H](N)c1cc(Cl)ccc1Cn1c(=S)[nH]c(=O)c2[nH]ccc21 [Example 1, 1-{2-[(1R)-1-Aminopropyl]-4-chlorobenzyl}-2-thioxo-1,2,3,5-tetrahydro-4H-pyrrolo[3,2-d]pyrimidin-4-one] | 4.4 | 512 | 0.0086 |  |  |  |
| O=c1[nH]c(=S)n(C[C@H]2CCCO2)c2nc[nH]c12 [AZD5904] |  |  |  |  | dose-dependently reduced urate levels |  |
| NCc1cc(C(F)(F)F)ccc1Cn1c(=S)[nH]c(=O)c2[nH]ccc21 [Example 14, 1-[2-(Aminomethyl)-4-(trifluoromethyl)benzyl]-2-thioxo-1,2,3,5-tetrahydro-4H-pyrrolo[3,2-d]pyrimidin-4-one] | 28 | 697 | 0.04 |  |  |  |
| CC(N)c1cc(Cl)ccc1Cn1c(=S)[nH]c(=O)c2[nH]ccc21 (racemic) [Example 2, 1-[2-(1-Aminoethyl)-4-chlorobenzyl]-2-thioxo-1,2,3,5-tetrahydro-4H-pyrrolo[3,2-d]pyrimidin-4-one] | 8.8 |  |  |  |  |  |
| CC(C)OCCn1c(=S)[nH]c(=O)c2[nH]ccc21 [AZD3241] |  |  |  |  |  | dose-dependently reduced urate levels |
| NCc1cc(Cl)ccc1Cn1c(=S)[nH]c(=O)c2[nH]ccc21 [Example 7, 1-[2-(Aminomethyl)-4-chlorobenzyl]-2-thioxo-1,2,3,5-tetrahydro-4H-pyrrolo[3,2-d]pyrimidin-4-one] | 11 |  |  |  |  |  |
| CNC(C)c1cc(Cl)ccc1Cn1c(=S)[nH]c(=O)c2[nH]ccc21 (stereo not shown) [Example 5, 1-{4-Chloro-2-[1-(methylamino)ethyl]benzyl}-2-thioxo-1,2,3,5-tetrahydro-4H-pyrrolo[3,2-d]pyrimidin-4-one] | 8.9 | 468 | 0.019 |  |  |  |
| C[C@H](N)c1cc(Cl)ccc1Cn1c(=S)[nH]c(=O)c2[nH]ccc21 [Example 4b, 1-{2-[(1S)-1-Aminoethyl]-4-chlorobenzyl}-2-thioxo-1,2,3,5-tetrahydro-4H-pyrrolo[3,2-d]pyrimidin-4-one] | 68 |  |  |  |  |  |

Second part, led by results:

| IC50 [1] [µM] | IC50 (TPO)/IC50 (MPO) [2] | IC50 [3] [µM] | inhibition of urate production by activated MPO (activated MPO) | SMILES | reduction of urate levels [4] | reduction of plasma urate levels versus baseline [5] |
| --- | --- | --- | --- | --- | --- | --- |
| 11 | 1100 | 0.01 |  | O=c1[nH]c(=S)n(Cc2ccccc2CNC2CCC2)c2cc[nH]c12 [Example 10, 1-{2-[(Cyclobutylamino)methyl]benzyl}-2-thioxo-1,2,3,5-tetrahydro-4H-pyrrolo[3,2-d]pyrimidin-4-one] |  |  |
| 46 | 852 | 0.054 |  | CC(C)CNCc1ccccc1Cn1c(=S)[nH]c(=O)c2[nH]ccc21 [Example 12, 1-(2-{[(2-Methylpropyl)amino]methyl}benzyl)-2-thioxo-1,2,3,5-tetrahydro-4H-pyrrolo[3,2-d]pyrimidin-4-one] |  |  |
| 38 | 1609 | 0.024 |  | CC(C)NCc1ccccc1Cn1c(=S)[nH]c(=O)c2[nH]ccc21 [Example 13, 1-{2-[(Propan-2-ylamino)methyl]benzyl}-2-thioxo-1,2,3,5-tetrahydro-4H-pyrrolo[3,2-d]pyrimidin-4-one] |  |  |
| 19 | 1357 | 0.014 |  | O=c1[nH]c(=S)n(Cc2ccccc2CNC2CCCC2)c2cc[nH]c12 [Example 11, 1-{2-[(Cyclopentylamino)methyl]benzyl}-2-thioxo-1,2,3,5-tetrahydro-4H-pyrrolo[3,2-d]pyrimidin-4-one] |  |  |
| 13 | 952 | 0.013 |  | CNCc1cc(Cl)ccc1Cn1c(=S)[nH]c(=O)c2[nH]ccc21 [Example 8, 1-{4-Chloro-2-[(methylamino)methyl]benzyl}-2-thioxo-1,2,3,5-tetrahydro-4H-pyrrolo[3,2-d]pyrimidin-4-one] |  |  |
| 16 | 552 | 0.029 |  | O=c1[nH]c(=S)n(Cc2ccccc2CNCC2CCC2)c2cc[nH]c12 [Example 9, 1-(2-{[(Cyclobutylmethyl)amino]methyl}benzyl)-2-thioxo-1,2,3,5-tetrahydro-4H-pyrrolo[3,2-d]pyrimidin-4-one] |  |  |
